Measurements as given in PubChem BioAssay AID248 (DTP/NCI, 2004).
Several values for one entry are separate records, joined by “and”; a condition that tells them apart may be missing. Equal values may be shown once. Toxic doses and inconclusive results are not listed. No stated cut-off is given here; in the data, active means T/C of 150% or more; inactive means T/C below 125%.

Test system: L1210 leukemia ip in BDF1 mice, survival T/C
Experiment: NCI In Vivo Anticancer Drug Screen. Data for tumor model L1210 Leukemia (intraperitoneal) in B6D2F1 (BDF1) mice
Conditions: endpoint: mean survival time, higher = longer survival
Method in brief: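 Read-out is survival time, reported as the treated-group measurement over the vehicle-control measurement.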

[1] = dose: 75.0 mg/kg/injection, schedule: Q01DX001 (ip), vehicle: saline
[2] = dose: 50.0 mg/kg/injection, schedule: Q01DX009 (ip), vehicle: saline with Tween-80
[3] = dose: 100.0 mg/kg/injection, schedule: Q01DX009 (ip), vehicle: saline with Tween-80
[4] = dose: 100.0 mg/kg/injection, schedule: Q04DX003 (ip), vehicle: saline with Tween-80
[5] = dose: 100.0 mg/kg/injection, schedule: Q04DX003 (ip), vehicle: Klucel (hydroxypropylcellulose) (HPC)
[6] = dose: 25.0 mg/kg/injection, schedule: Q01DX009 (ip), vehicle: saline
[7] = dose: 25.0 mg/kg/injection, schedule: Q04DX003 (ip), vehicle: saline
[8] = dose: 50.0 mg/kg/injection, schedule: Q01DX009 (ip), vehicle: saline
[9] = dose: 50.0 mg/kg/injection, schedule: Q04DX003 (ip), vehicle: saline
[10] = dose: 200.0 mg/kg/injection, schedule: Q01DX009 (ip), vehicle: saline with Tween-80
[11] = dose: 200.0 mg/kg/injection, schedule: Q04DX003 (ip), vehicle: saline with Tween-80
[12] = dose: 400.0 mg/kg/injection, schedule: Q04DX003 (ip), vehicle: saline with Tween-80

Measured: T/C

COc1cc2c(cc1OC)C1(CCBr)C3CC4C(=CCOC5CC(=O)N2C1C54)CN3C(=O)Cc1ccccc1 (stereo not given)
inactive: [1] 107 % of control

CCC(O)C(CCN(C)C)(CN(C)C)c1ccccc1 (stereo not given)
inactive: dose: 75.0 mg/kg/injection, schedule: Q01DX001 (ip), vehicle: carboxymethylcellulose (CMC) 94 % of control | dose: 150.0 mg/kg/injection, schedule: Q01DX001 (ip), vehicle: carboxymethylcellulose (CMC) 102 % of control

O=C(O)c1ccccc1Cl.[Ni]
inactive: dose: 25.0 mg/kg/injection, schedule: Q04DX002 (ip), vehicle: Klucel (hydroxypropylcellulose) (HPC) 94 % of control | dose: 50.0 mg/kg/injection, schedule: Q04DX002 (ip), vehicle: Klucel (hydroxypropylcellulose) (HPC) 109 % of control

CCC(=O)c1ccc(OCC(O)CN2CCC(O)(c3ccccc3)CC2)cc1 (stereo not given)
inactive: dose: 25.0 mg/kg/injection, schedule: Q01DX009 (ip), vehicle: saline with Tween-80 98 % of control | dose: 25.0 mg/kg/injection, schedule: Q04DX003 (ip), vehicle: saline with Tween-80 97 % of control | [2] 89 % of control | dose: 50.0 mg/kg/injection, schedule: Q04DX003 (ip), vehicle: saline with Tween-80 105 % of control | [3] 95 % of control | [4] 100 % of control

CC(C)(Cc1ccc(F)cc1)NCc1ccccc1
inactive: dose: 25.0 mg/kg/injection, schedule: Q01DX009 (ip), vehicle: Klucel (hydroxypropylcellulose) (HPC) 92 % of control | dose: 25.0 mg/kg/injection, schedule: Q04DX003 (ip), vehicle: Klucel (hydroxypropylcellulose) (HPC) 101 % of control | dose: 50.0 mg/kg/injection, schedule: Q01DX009 (ip), vehicle: Klucel (hydroxypropylcellulose) (HPC) 95 % of control | dose: 50.0 mg/kg/injection, schedule: Q04DX003 (ip), vehicle: Klucel (hydroxypropylcellulose) (HPC) 103 % of control | [5] 88 % of control and 92 % of control

CCN(CC)CCc1ccccn1
inactive: dose: 12.5 mg/kg/injection, schedule: Q01DX009 (ip), vehicle: saline 98 % of control | [6] 100 % of control | [7] 106 % of control | [8] 100 % of control | [9] 103 % of control

CN(C)C(=S)[S][Sn]([c]1ccccc1)([c]1ccccc1)[c]1ccccc1
inactive: dose: 1.25 mg/kg/injection, schedule: Q01DX009 (ip), vehicle: saline with Tween-80 88 % of control | dose: 1.25 mg/kg/injection, schedule: Q04DX003 (ip), vehicle: saline with Tween-80 99 % of control | dose: 2.5 mg/kg/injection, schedule: Q01DX009 (ip), vehicle: saline with Tween-80 93 % of control | dose: 2.5 mg/kg/injection, schedule: Q04DX003 (ip), vehicle: saline with Tween-80 99 % of control | dose: 5.0 mg/kg/injection, schedule: Q01DX001 (ip), vehicle: steriod suspending solution 95 % of control | dose: 5.0 mg/kg/injection, schedule: Q01DX009 (ip), vehicle: Klucel (hydroxypropylcellulose) (HPC) 101 % of control | dose: 5.0 mg/kg/injection, schedule: Q01DX009 (ip), vehicle: saline with Tween-80 106 % of control | dose: 5.0 mg/kg/injection, schedule: Q04DX003 (ip), vehicle: Klucel (hydroxypropylcellulose) (HPC) 92 % of control | dose: 5.0 mg/kg/injection, schedule: Q04DX003 (ip), vehicle: saline with Tween-80 98 % of control | dose: 10.0 mg/kg/injection, schedule: Q01DX001 (ip), vehicle: steriod suspending solution 101 % of control | dose: 10.0 mg/kg/injection, schedule: Q01DX009 (ip), vehicle: Klucel (hydroxypropylcellulose) (HPC) 92 % of control | dose: 10.0 mg/kg/injection, schedule: Q04DX003 (ip), vehicle: Klucel (hydroxypropylcellulose) (HPC) 97 % of control | dose: 20.0 mg/kg/injection, schedule: Q01DX009 (ip), vehicle: Klucel (hydroxypropylcellulose) (HPC) 103 % of control | dose: 20.0 mg/kg/injection, schedule: Q04DX003 (ip), vehicle: Klucel (hydroxypropylcellulose) (HPC) 91 % of control | dose: 40.0 mg/kg/injection, schedule: Q01DX001 (ip), vehicle: steriod suspending solution 92 % of control

O=C(Cc1cccc2ccccc12)NO
inactive: dose: 100.0 mg/kg/injection, schedule: Q01DX009 (ip), vehicle: Klucel (hydroxypropylcellulose) (HPC) 95 % of control | [5] 95 % of control | dose: 200.0 mg/kg/injection, schedule: Q01DX009 (ip), vehicle: Klucel (hydroxypropylcellulose) (HPC) 102 % of control | dose: 200.0 mg/kg/injection, schedule: Q04DX003 (ip), vehicle: Klucel (hydroxypropylcellulose) (HPC) 95 % of control | dose: 400.0 mg/kg/injection, schedule: Q01DX009 (ip), vehicle: Klucel (hydroxypropylcellulose) (HPC) 101 % of control | dose: 400.0 mg/kg/injection, schedule: Q04DX003 (ip), vehicle: Klucel (hydroxypropylcellulose) (HPC) 104 % of control

CS(=O)(=O)OCCN(CCOS(C)(=O)=O)c1ccccc1
inactive: dose: 100.0 mg/kg/injection, schedule: Q01DX001 (ip), vehicle: other 100 % of control

CCOP(=O)(NC=S)OCC
inactive: [1] 96 % of control

Cc1ccc(Cl)cc1NC(=O)Nc1ccc(C)c(NC(=O)Nc2cc(Cl)ccc2C)c1
inactive: [3] 87 % of control | [4] 88 % of control | [10] 92 % of control | [11] 86 % of control | dose: 400.0 mg/kg/injection, schedule: Q01DX009 (ip), vehicle: saline with Tween-80 98 % of control | [12] 90 % of control

Nc1nc(N)c2nc(-c3ccccc3)c(N)nc2n1
inactive: dose: 2.13 mg/kg/injection, schedule: Q01DX Z (ip), vehicle: other 91 % of control | dose: 6.25 mg/kg/injection, schedule: Q01DX Z (ip), vehicle: other 97 % of control | dose: 12.5 mg/kg/injection, schedule: Q01DX Z (ip), vehicle: other 105 % of control

COC(=O)c1cc(NC(=O)Nc2cc([N+](=O)[O-])ccc2C)cc(C(=O)OC)c1
inactive: dose: 100.0 mg/kg/injection, schedule: Q04DX002 (ip), vehicle: saline 120 % of control | dose: 200.0 mg/kg/injection, schedule: Q04DX002 (ip), vehicle: saline 103 % of control | dose: 400.0 mg/kg/injection, schedule: Q04DX002 (ip), vehicle: saline 116 % of control

CCCCCCCCCCCC(=O)[O][Pb]([CH2]CCC)([CH2]CCC)[O]C(=O)CCCCCCCCCCC
inactive: dose: 6.25 mg/kg/injection, schedule: Q04DX002 (ip), vehicle: gum acacia 95 % of control | dose: 12.5 mg/kg/injection, schedule: Q04DX002 (ip), vehicle: gum acacia 92 % of control and 98 % of control | dose: 25.0 mg/kg/injection, schedule: Q04DX002 (ip), vehicle: gum acacia 88 % of control

CC=C(C)c1ccccc1 (mixture of isomers)
inactive: [2] 118 % of control | [3] 123 % of control | [10] 94 % of control

CC1(C)CC(C(=O)O)C(=O)O1 (stereo not given)
inactive: [1] 97 % of control | dose: 150.0 mg/kg/injection, schedule: Q01DX001 (ip), vehicle: saline 103 % of control | dose: 300.0 mg/kg/injection, schedule: Q01DX001 (ip), vehicle: saline 98 % of control

COc1ccc(C(C(N)=O)N2CCCC2)cc1 (stereo not given)
inactive: [4] 102 % of control | [11] 96 % of control | [12] 96 % of control

C/C(=N\[N+](C)(C)C)c1ccc(Br)cc1
inactive: dose: 12.5 mg/kg/injection, schedule: Q04DX003 (ip), vehicle: saline 109 % of control | [6] 92 % of control | [7] 100 % of control | [8] 91 % of control | [9] 104 % of control | dose: 100.0 mg/kg/injection, schedule: Q01DX009 (ip), vehicle: saline 91 % of control | dose: 100.0 mg/kg/injection, schedule: Q04DX003 (ip), vehicle: saline 102 % of control
